Laboratory results as given in PubChem BioAssay (NCI).
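Briefly, cells in 96-well plates were exposed to five compound concentrations for 48 h, and endpoints were estimated by linear interpolation. GI50 is the concentration that inhibits growth by half. At the TGI there is no net growth.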

Legend:
Test in all cases: NCI tumour cell line growth inhibition, 48 h
OVCAR-3 ovarian = test system: OVCAR-3 ovarian
SNB-19 CNS = test system: SNB-19 CNS
UACC-257 melanoma = test system: UACC-257 melanoma
BT-549 breast = test system: BT-549 breast
A549 NSCLC = test system: A549 NSCLC
M14 melanoma = test system: M14 melanoma
MDA-MB-231 breast = test system: MDA-MB-231 breast
NCI-H23 lung = test system: NCI-H23 lung
MDA-MB-435 = test system: MDA-MB-435
SF-295 CNS = test system: SF-295 CNS
SK-MEL-5 melanoma = test system: SK-MEL-5 melanoma
EKVX NSCLC = test system: EKVX NSCLC
SR leukemia = test system: SR leukemia
K-562 leukemia = test system: K-562 leukemia
OVCAR-4 ovarian = test system: OVCAR-4 ovarian
A498 renal = test system: A498 renal
NCI-H460 lung = test system: NCI-H460 lung
HOP-62 NSCLC = test system: HOP-62 NSCLC
COLO 205 colon = test system: COLO 205 colon
UO-31 renal = test system: UO-31 renal
CAKI-1 renal = test system: CAKI-1 renal
T-47D breast = test system: T-47D breast
HOP-92 NSCLC = test system: HOP-92 NSCLC
SF-268 CNS = test system: SF-268 CNS
IGROV1 ovarian = test system: IGROV1 ovarian
HCT-116 colon = test system: HCT-116 colon
U251 CNS = test system: U251 CNS
MCF7 breast = test system: MCF7 breast
SK-MEL-28 melanoma = test system: SK-MEL-28 melanoma
MALME-3M melanoma = test system: MALME-3M melanoma
HCC-2998 colon = test system: HCC-2998 colon
MOLT-4 leukemia = test system: MOLT-4 leukemia
PC-3 prostate = test system: PC-3 prostate
RPMI-8226 leukemia = test system: RPMI-8226 leukemia
LOX IMVI melanoma = test system: LOX IMVI melanoma
HT29 colon = test system: HT29 colon
SN12C renal = test system: SN12C renal
SK-OV-3 ovarian = test system: SK-OV-3 ovarian
SNB-75 CNS = test system: SNB-75 CNS
786-0 renal = test system: 786-0 renal
SW-620 colon = test system: SW-620 colon
RXF 393 renal = test system: RXF 393 renal
HL-60(TB) leukemia = test system: HL-60(TB) leukemia
ACHN renal = test system: ACHN renal
OVCAR-5 ovarian = test system: OVCAR-5 ovarian
NCI-H522 lung = test system: NCI-H522 lung
OVCAR-8 ovarian = test system: OVCAR-8 ovarian
HS 578T breast = test system: HS 578T breast
NCI-H226 lung = test system: NCI-H226 lung
SK-MEL-2 melanoma = test system: SK-MEL-2 melanoma
DU-145 prostate = test system: DU-145 prostate
UACC-62 melanoma = test system: UACC-62 melanoma
HCT-15 colon = test system: HCT-15 colon
NCI/ADR-RES ovarian = test system: NCI/ADR-RES ovarian
KM12 colon = test system: KM12 colon
TK-10 renal = test system: TK-10 renal
SF-539 CNS = test system: SF-539 CNS

CC1OC(OC2C(OC(=O)[C@]34CCC(C)(C)C[C@H]3C3=CC[C@@H]5[C@@]6(C)CC[C@H](OC7OC(C(=O)O)C(O)C(O)C7O)C(C)(C)[C@@H]6CC[C@@]5(C)[C@]3(C)C[C@H]4O)OCC(O)C2O)C(O)C(O)C1OC1OCC(OC2OCC(O)C(O)C2O)C(O)C1O (stereo not given in full)
TGI (OVCAR-3 ovarian): 30 µM
TGI (SNB-19 CNS): 18.4 µM
TGI (UACC-257 melanoma): 23 µM
TGI (BT-549 breast): 13 µM
TGI (A549 NSCLC): 15.5 µM
TGI (M14 melanoma): 11.5 µM
TGI (MDA-MB-231 breast): 11.9 µM
TGI (NCI-H23 lung): 4.87 µM
TGI (MDA-MB-435): 17.8 µM
TGI (SF-295 CNS): 22.2 µM
TGI (SK-MEL-5 melanoma): 27.2 µM
TGI (EKVX NSCLC): 15.2 µM
TGI (SR leukemia): 53.9 µM
TGI (K-562 leukemia): 47.8 µM
TGI (OVCAR-4 ovarian): 9.31 µM
TGI (A498 renal): 3.06 µM
TGI (NCI-H460 lung): 32.6 µM
TGI (HOP-62 NSCLC): 27.1 µM
TGI (COLO 205 colon): 3.32 µM
TGI (UO-31 renal): 4.84 µM
TGI (CAKI-1 renal): 21.6 µM
TGI (T-47D breast): 26.3 µM
TGI (HOP-92 NSCLC): 19.5 µM
TGI (SF-268 CNS): 26.3 µM
TGI (IGROV1 ovarian): 26.5 µM
TGI (HCT-116 colon): 16.6 µM
TGI (U251 CNS): 21.2 µM
TGI (MCF7 breast): 17.6 µM
TGI (SK-MEL-28 melanoma): 11.7 µM
TGI (MALME-3M melanoma): 25.3 µM
TGI (HCC-2998 colon): 3.03 µM
TGI (MOLT-4 leukemia): 37.1 µM
TGI (PC-3 prostate): 19.3 µM
TGI (RPMI-8226 leukemia): 51.5 µM
TGI (LOX IMVI melanoma): 24.2 µM
TGI (HT29 colon): 11 µM
TGI (SN12C renal): 5.68 µM
TGI (SK-OV-3 ovarian): 26.9 µM
TGI (SNB-75 CNS): 26.1 µM
TGI (786-0 renal): 23.3 µM
TGI (SW-620 colon): 23.1 µM
TGI (RXF 393 renal): 29 µM
TGI (HL-60(TB) leukemia): 18.1 µM
TGI (ACHN renal): 15.8 µM
TGI (OVCAR-5 ovarian): 20.1 µM
TGI (NCI-H522 lung): 16.5 µM
TGI (OVCAR-8 ovarian): 32.3 µM
TGI (HS 578T breast): 37.9 µM
TGI (NCI-H226 lung): 22.9 µM
TGI (SK-MEL-2 melanoma): 11.7 µM
TGI (DU-145 prostate): 23.8 µM
TGI (UACC-62 melanoma): 23.7 µM
TGI (HCT-15 colon): 28 µM
TGI (NCI/ADR-RES ovarian): 25.1 µM
TGI (KM12 colon): 14 µM

CC1=C(C#N)C23C(=O)c4ccccc4C(O)=C2C(=O)C=CC3(O)N1Cc1ccccc1 (stereo not given)
GI50 (OVCAR-3 ovarian): 32 µM
TGI (OVCAR-3 ovarian): > 100 µM
GI50 (SNB-19 CNS): 40.1 µM
TGI (SNB-19 CNS): > 100 µM
GI50 (UACC-257 melanoma): 35 µM
TGI (UACC-257 melanoma): > 100 µM
GI50 (BT-549 breast): 36.2 µM
TGI (BT-549 breast): > 100 µM
GI50 (A549 NSCLC): 72.2 µM
TGI (A549 NSCLC): > 100 µM
GI50 (M14 melanoma): 32.8 µM
TGI (M14 melanoma): > 100 µM
GI50 (MDA-MB-231 breast): 44.4 µM
TGI (MDA-MB-231 breast): > 100 µM
GI50 (NCI-H23 lung): 29.9 µM
TGI (NCI-H23 lung): > 100 µM
GI50 (MDA-MB-435): 38.6 µM
TGI (MDA-MB-435): > 100 µM
GI50 (SF-295 CNS): 17.6 µM
TGI (SF-295 CNS): > 100 µM
GI50 (SK-MEL-5 melanoma): 18 µM
TGI (SK-MEL-5 melanoma): 61.5 µM
GI50 (EKVX NSCLC): 43.6 µM
TGI (EKVX NSCLC): > 100 µM
GI50 (SR leukemia): 33.7 µM
TGI (SR leukemia): > 100 µM
GI50 (K-562 leukemia): 32.9 µM
TGI (K-562 leukemia): > 100 µM
GI50 (OVCAR-4 ovarian): 38.6 µM
TGI (OVCAR-4 ovarian): > 100 µM
GI50 (A498 renal): > 100 µM
TGI (A498 renal): > 100 µM
GI50 (NCI-H460 lung): 30.3 µM
TGI (NCI-H460 lung): > 100 µM
GI50 (HOP-62 NSCLC): 49.9 µM
TGI (HOP-62 NSCLC): > 100 µM
GI50 (COLO 205 colon): 16.6 µM
TGI (COLO 205 colon): 34.4 µM
GI50 (UO-31 renal): 18 µM
TGI (UO-31 renal): > 100 µM
GI50 (CAKI-1 renal): 43.2 µM
TGI (CAKI-1 renal): > 100 µM
GI50 (T-47D breast): 25.8 µM
TGI (T-47D breast): 71.6 µM
GI50 (HOP-92 NSCLC): 39.4 µM
TGI (HOP-92 NSCLC): > 100 µM
GI50 (SF-268 CNS): 40.3 µM
TGI (SF-268 CNS): > 100 µM
GI50 (IGROV1 ovarian): 23.9 µM
TGI (IGROV1 ovarian): 72.4 µM
GI50 (HCT-116 colon): 34.8 µM
TGI (HCT-116 colon): > 100 µM
GI50 (U251 CNS): 42 µM
TGI (U251 CNS): > 100 µM
GI50 (MCF7 breast): 41.6 µM
TGI (MCF7 breast): > 100 µM
GI50 (SK-MEL-28 melanoma): 57.1 µM
TGI (SK-MEL-28 melanoma): > 100 µM
GI50 (MALME-3M melanoma): 22 µM
TGI (MALME-3M melanoma): 47.1 µM
GI50 (HCC-2998 colon): > 100 µM
TGI (HCC-2998 colon): > 100 µM
GI50 (PC-3 prostate): 47 µM
TGI (PC-3 prostate): > 100 µM
GI50 (RPMI-8226 leukemia): 34 µM
TGI (RPMI-8226 leukemia): > 100 µM
GI50 (LOX IMVI melanoma): 33 µM
TGI (LOX IMVI melanoma): > 100 µM
GI50 (TK-10 renal): 36.9 µM
TGI (TK-10 renal): > 100 µM
GI50 (HT29 colon): 43.7 µM
TGI (HT29 colon): > 100 µM
GI50 (SN12C renal): 52.5 µM
TGI (SN12C renal): > 100 µM
GI50 (SK-OV-3 ovarian): > 100 µM
TGI (SK-OV-3 ovarian): > 100 µM
GI50 (SNB-75 CNS): 36.6 µM
TGI (SNB-75 CNS): > 100 µM
GI50 (786-0 renal): 44.5 µM
TGI (786-0 renal): > 100 µM
GI50 (SW-620 colon): 37.1 µM
TGI (SW-620 colon): > 100 µM
GI50 (SF-539 CNS): 48.2 µM
TGI (SF-539 CNS): > 100 µM
GI50 (RXF 393 renal): 26 µM
TGI (RXF 393 renal): > 100 µM
GI50 (HL-60(TB) leukemia): 37.8 µM
TGI (HL-60(TB) leukemia): > 100 µM
GI50 (ACHN renal): 29.4 µM
TGI (ACHN renal): > 100 µM
GI50 (OVCAR-5 ovarian): 30.3 µM
TGI (OVCAR-5 ovarian): > 100 µM
GI50 (NCI-H522 lung): 22.9 µM
TGI (NCI-H522 lung): 58.1 µM
GI50 (OVCAR-8 ovarian): 38.5 µM
TGI (OVCAR-8 ovarian): > 100 µM
GI50 (HS 578T breast): 26.2 µM
TGI (HS 578T breast): > 100 µM
GI50 (SK-MEL-2 melanoma): 33 µM
TGI (SK-MEL-2 melanoma): > 100 µM
GI50 (DU-145 prostate): 35.1 µM
TGI (DU-145 prostate): > 100 µM
GI50 (UACC-62 melanoma): 47.4 µM
TGI (UACC-62 melanoma): > 100 µM
GI50 (HCT-15 colon): 15 µM
TGI (HCT-15 colon): > 100 µM
GI50 (NCI/ADR-RES ovarian): 2.84 µM
TGI (NCI/ADR-RES ovarian): 30.6 µM
GI50 (KM12 colon): 42.4 µM
TGI (KM12 colon): > 100 µM
